Source: patent US12673034B2, “Peptides, compounds, compositions and methods for inhibiting SOX9” (CRITICAL OUTCOME TECHNOLOGIES INC., priority 2019, dated 2026)
Substitutions are numbered along the chain they refer to. Like-named read-outs stand apart in the source and are kept apart here.

Assays:
[1] = target: T1, SOX9 (Rattus norvegicus, UniProt F1LYL9); test: Q-PCR of SOX9 and SOX9 target gene expression in primary rat astrocyte cultures; format: cell-based; conditions: 10 μM
T1 construct: endogenous in cells; host or cells: primary rat astrocyte cultures
T1 sequence (F1LYL9 1-507): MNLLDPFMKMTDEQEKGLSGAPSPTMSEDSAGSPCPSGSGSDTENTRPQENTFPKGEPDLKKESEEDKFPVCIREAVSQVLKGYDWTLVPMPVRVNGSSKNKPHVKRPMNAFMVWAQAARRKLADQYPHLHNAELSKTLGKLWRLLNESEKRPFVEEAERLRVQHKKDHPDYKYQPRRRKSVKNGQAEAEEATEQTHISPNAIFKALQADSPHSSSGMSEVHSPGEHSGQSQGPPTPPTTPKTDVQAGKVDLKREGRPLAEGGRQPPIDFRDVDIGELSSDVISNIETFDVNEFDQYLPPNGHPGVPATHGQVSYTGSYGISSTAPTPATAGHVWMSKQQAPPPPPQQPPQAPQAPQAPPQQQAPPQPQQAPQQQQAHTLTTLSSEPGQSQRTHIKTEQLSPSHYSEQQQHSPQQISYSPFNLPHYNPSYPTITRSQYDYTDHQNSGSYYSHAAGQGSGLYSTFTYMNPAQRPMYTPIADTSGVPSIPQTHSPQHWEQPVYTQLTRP
Description: FIG. 2 graphically depicts results from treatment of two-week old rat astrocytes for 48 h (hours) with 10 μM SOX-DIMER (white), which show decreased SOX9 target gene expression compared to control (FLAG-Tat) peptide-treated cultures (black) (* indicates statistical significance P<0.05, two-tailed t-test; N=4);
Primary astrocyte cultures were treated with 10 μM SOX-DIMER peptide or of a control peptide (FLAG-Tat) for 48 h and then harvested RNA.
(§1) To identify small molecule inhibitors of SOX9 design efforts focused on the septameric peptide sequence (IREAVSQ, SEQ ID NO:1, underlined in the SOX-DIMER sequence given above) identified as a subregion of the known SOX9 dimerization domain with a high likelihood of direct participation in dimerization. This prediction was based on the position of the human mutation that causes the skeletal but not the sex reversal abnormalities of campomelic dyskplasia (Bernard et al 2003). A computational screen of ˜12 million compounds was performed to identify small molecules predicted to interfere with SOX9 dimerization, based on the physical-chemical properties of the SOX-DIMER peptide motif.

[2] = system: spinal cord injured rats; test: Locomotor recovery (hind limb function, open field test, BBB score) after thoracic SCI; format: in vivo; conditions: rat, T9 200 kdyne SCI, intrathecal approximately 400 μg/Kg/day
Description: In a longer-term study, compound 1 (approximately 400 μg/Kg/day) or vehicle was again delivered intrathecally to rats immediately after a T9, 200 kdyne SCI, and hind limb function was evaluated twice per week by an observer blinded to treatment group in an open field test for […] (FIG. 5). […] By day 56 the compound 1-treated rats achieved average locomotor BBB scores (Basso et al 1995) of 12.4±0.8 indicating consistent weight supported plantar placement and occasional forelimb/hind limb coordination while the vehicle-treated rats only achieved an average locomotor BBB score of 10.4±0.7, indicating occasional weight supported planter placement with no forelimb/hind limb coordination.

[3] = target: T2, SOX9 (Mus musculus, UniProt Q04887); test: SOX9 target gene expression in chondrogenic cell line ATDC5; format: cell-based; design: in the chondrogenic cell line ATDC5; endogenous in cells; host or cells: ATDC5 chondrogenic cell line
T2 sequence (Q04887 1-507): T1 sequence (F1LYL9 1-507) with S314T, P368Q, Q369P, N427S, T432P, T441A
From the text: as §1
Some of the inhibitor compounds were also tested on ATDC5 cells for their effect on SOX9 target gene expression by q-PCR (aggrecan data is shown in FIG. 11) and on LX-2 (human hepatocyte (stellate cells) cells for collagen gene expression (associated with liver fibrosis), as shown in FIG. 12.

[4] = target: T2, SOX9; test: SOX9 target gene expression in primary mouse astrocyte cultures; format: cell-based; design: primary mouse and rat astrocyte cultures; endogenous in cells; host or cells: primary mouse astrocyte cultures; conditions: primary mouse astrocyte cultures (FIG. 3)
[5] = system: CSPG levels in the injured rat spinal cord; test: CSPG levels in injured rat spinal cord, biotinylated-WFA staining; format: in vivo; conditions: T9 200 kdyne SCI, intrathecal pump approximately 400 μg/Kg/day for 4 weeks, sections caudal to the lesion, vs vehicle
Description: To assess the effect of compound 1 on CSPG levels in the injured rat spinal cord, compound 1 or vehicle was delivered by an intrathecal pump delivering compound 1 at approximately 400 μg/Kg/day for 4 weeks starting immediately after a 200 kdyne T9 thoracic SCI. This dose was predicted to result in a concentration of compound 1 of between 10 and 30 μM based on an estimated cerebrospinal fluid volume of 580 μL (Murtha et al 2014) and a turnover rate of about 12-13 times per day (Simon et al 1995).

[6] = Spinal cord concentration after intravenous injection, UPLC coupled to mass spectrometry; format: in vivo, rat
Description: Compound 1 was delivered intrathecally as it was initially unknown the inhibitory compound could cross the blood brain barrier. To resolve this issue a subsequent study was carried out in which control and T9 spinal cord injured rats were given intravenous injections of compound 1 (1 or 10 nmol/g) or of vehicle at 24 and 48 h after SCI and sacrificed 24 h later. […] Compound 1 was even found in the spinal cords after dosing uninjured controls (FIG. 6).
Using a standard curve, the concentration of compound 1 in the injured spinal cord after a 10 nmol/g iv injection was determined to be 2.7 μM at the lesion epicenter, 1.9 μM in the lumbar cord and 1.02 μM in the uninjured cord.

SOX9 target gene expression [3]	SOX9 target gene expression [4]	SOX9 target gene expression ([1]; primary rat astrocyte cultures, 48 h vs vehicle (FIG. 3))	reduction of spinal cord concentrations after 1 nmol/g relative to 10 nmol/g ([6]; rat, 1 nmol/g iv injections)	Compound	expression of SOX9 and SOX9 target genes (XT-1, XT-2, Hapln1, Collagen 2a1, GFAP, aggrecan, brevican) ([1]; 48 h, primary astrocyte cultures, vs control peptide FLAG-Tat, Q-PCR (FIG. 2))	average locomotor BBB score ([2]; day 56)	hind limb function in open field test ([2]; vs vehicle)	reduction in CSPG levels (WFA staining) [5]	concentration at 24 h after the last injection ([6]; lesion epicenter, T9 spinal cord injured rat, 10 nmol/g iv at 24 and 48 h after SCI, sacrificed 24 h later, read-out: concentration in spinal cord at the lesion epicenter)	concentration at 24 h after the last injection ([6]; lumbar enlargement (distal to the lesion), T9 spinal cord injured rat, 10 nmol/g iv at 24 and 48 h after SCI, sacrificed 24 h later, read-out: concentration in the lumbar cord)	penetration of the blood-spinal cord barrier ([6]; rat, 10 nmol/g iv, control or spinal cord injured)	concentration at 24 h after the last injection ([6]; uninjured spinal cord, uninjured control rat, 10 nmol/g iv, read-out: concentration in the uninjured cord)
–	–	–	–	SOX-DIMER: fusion between the SOX9 dimerization motif (DKFPVCIREAVSQVLKGYDW, SEQ ID NO. 2) and the protein transduction domain of the HIV-1 Tat protein (DKFPVCIREAVSQVLKGYDWKYGRKKRRQRRR)	significantly reducing the expression of SOX9 and SOX9 target genes	–	–	–	–	–	–	–
decrease SOX9 target gene expression	decrease SOX9 target gene expression	decrease SOX9 target gene expression	10 fold	COc1ccc(C(=O)N2CCN(C)CC2)cc1NC(=O)COc1cc(C)ccc1C(C)C [compound 1]	–	12.4±0.8	statistically significant improvement	3 fold	2700 nM	1900 nM	can penetrate the blood-spinal cord barrier	1020 nM
